Tests used:
[1] = target: recombinant human S1P1 receptor (Homo sapiens, UniProt P21453); assay: GTPγS assay to determine EC50 values; type: biochemical; conditions: 35S-GTPγS binding, membrane preparations of CHO cells expressing recombinant human S1P1 receptor
Experimental: GTPγS binding assays are performed in 96 well microtiter plates (Nunc, 442587) in a final volume of 200 μl, using membrane preparations of CHO cells expressing recombinant human S1P1 receptor. Assay conditions are 20 mM Hepes (Fluka, 54461), 100 mM NaCl (Fluka, 71378), 5 mM MgCl2 (Fluka, 63064), 0.1% BSA (Calbiochem, 126609), 1 μM GDP (Sigma, G-7127), 2.5% DMSO (Fluka, 41644), 50 pM ^35S-GTPγS (Amersham Biosciences, SJ1320). The pH is 7.4. Test compounds are dissolved and diluted in 100% DMSO and pre-incubated at room temperature for 30 min in 150 μl of the above assay buffer, in the absence of ^35S-GTPγS. After addition of 50 μl of ^35S-GTPγS, the assay is incubated for 1 h at rt. The assay is terminated by transfer of the reaction mixture to a Multiscreen plate (Millipore, MAHFC1H60) using a cell harvester from Packard Biosciences, and the plates are washed with ice-cold 10 mM Na2HPO4/NaH2PO4 (70%/30%), dried, sealed at the bottom and, after addition of 25 μl MicroScint20 (Packard Biosciences, order#6013621), sealed on the top. Membrane-bound ^35S-GTPγS is measured with a TopCount from Packard Biosciences.
EC50 is the concentration of agonist inducing 50% of the maximal specific ^35S-GTPγS binding. Specific binding is determined by subtracting non-specific binding from maximal binding. Maximal binding is the amount of cpm bound to the Multiscreen plate in the presence of 10 μM of S1P. Non-specific binding is the amount of binding in the absence of an agonist in the assay. […] The EC50 values were determined according to the method described above: […]

circulating lymphocytes = assay: Assessment of in vivo efficacy: circulating lymphocytes after oral administration; conditions: 6 h after oral administration of 10 mg/kg to normotensive male Wistar rats, as compared to vehicle-only group
Experimental: The efficacy of the compounds of Formula (I) is assessed by measuring the circulating lymphocytes after oral administration of 3 to 30 mg/kg of a compound of Formula (I) to normotensive male Wistar rats. The animals are housed in climate-controlled conditions with a 12 h-light/dark cycle, and have free access to normal rat chow and drinking water. Blood is collected before and 3, 6 and 24 h after drug administration. Full blood is subjected to hematology using Advia Hematology system (Bayer Diagnostics, Zurich, Switzerland).
All data are presented as mean±SEM. Statistical analyses are performed by analysis of variance (ANOVA) using Statistica (StatSoft) and the Student-Newman-Keuls procedure for multiple comparisons. The null hypothesis is rejected when p<0.05.

Chain of recombinant human S1P1 receptor (P21453 whole entry): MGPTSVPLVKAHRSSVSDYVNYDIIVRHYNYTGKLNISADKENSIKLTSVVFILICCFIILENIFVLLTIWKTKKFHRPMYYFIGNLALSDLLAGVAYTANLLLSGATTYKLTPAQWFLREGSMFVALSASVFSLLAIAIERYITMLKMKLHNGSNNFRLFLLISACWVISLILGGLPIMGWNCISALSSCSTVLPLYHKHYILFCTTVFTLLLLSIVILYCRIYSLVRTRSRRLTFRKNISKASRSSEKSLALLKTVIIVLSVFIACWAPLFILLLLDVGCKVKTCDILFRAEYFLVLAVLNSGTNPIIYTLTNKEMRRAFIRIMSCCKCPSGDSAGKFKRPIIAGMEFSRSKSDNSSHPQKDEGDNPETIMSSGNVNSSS

| Structure (SMILES) | EC50 [1] | Lymphocyte counts (circulating lymphocytes) |
| --- | --- | --- |
| CCc1cc(-c2noc(-c3sc(C)c4c3CC3C4C3(C)C)n2)cc(C)n1 (centres unmarked) [Example 14, 2-Ethyl-6-methyl-4-[5-(1,1,2-trimethyl-1,1a,5,5a-tetrahydro-3-thia-cyclopropa[a]pentalen-4-yl)-[1,2,4]oxadiazol-3-yl]-pyridine] | 3.7 nM |  |
| CCc1cc(CCC(=O)c2sc(CC)c3c2CCC(C)(C)C3)cc(C)n1 [Example 4, 1-(3-Ethyl-5,5-dimethyl-4,5,6,7-tetrahydro-benzo[c]thiophen-1-yl)-3-(2-ethyl-6-methyl-pyridin-4-yl)-propan-1-one] | 4.6 nM |  |
| CCc1cc(C=CC(=O)c2sc(C)c3c2CC2C3C2(C)C)cc(C)n1 [Example 1, 3-(2-Ethyl-6-methyl-pyridin-4-yl)-1-((1aS,5aR)-1,1,2-trimethyl-1,1a,5,5a-tetrahydro-3-thia-cyclopropa[a]pentalen-4-yl)-propenone] | 1.3 nM |  |
| CCc1cc(-c2nnc(-c3sc(C)c4c3C[C@@H]3[C@H]4C3(C)C)o2)cc(C)n1 [Example 5, 2-Ethyl-6-methyl-4-[5-((1aS,5aR)-1,1,2-trimethyl-1,1a,5,5a-tetrahydro-3-thia-cyclopropa[a]pentalen-4-yl)-[1,3,4]oxadiazol-2-yl]-pyridine] |  | −77% |
| Cc1cc(-c2nnc(-c3sc(C)c4c3C[C@@H]3[C@H]4C3(C)C)o2)cc(C)n1 [Example 8, 2,6-Dimethyl-4-[5-((1aS,5aR)-1,1,2-trimethyl-1,1a,5,5a-tetrahydro-3-thia-cyclopropa[a]pentalen-4-yl)-[1,3,4]oxadiazol-2-yl]-pyridine] | 3.4 nM |  |
